Starred links: 1 amine or outer side, 2 acyl side, 3 side chain; linkers in the order of their positions; H or OH if unused. Non-standard residues stand in square brackets, D forms with d. Residues, ends and D or L forms follow the SMILES beside them. azaβ3(1Nal) = O=C(CN(Cc1cccc2ccccc12)N[*:1])[*:2]
Legend:
[1] = tested on: zebrafish embryos; assay: Zebrafish embryo quantitative toxicity (size, curvature, cardiac frequency)
Experimental: Adult fish were kept in 30l aquariums at 27°C ± 2°C under constant light/dark (14:10 h) cycles. The day before the embryos were used, males and females were placed in breeding tanks. The fish were left undisturbed overnight, and the eggs were collected 1 h after the light was turned on the next morning. When the injections of the cyclic peptides started, embryos were transferred into microtiter plates placed at 28°C for 24 h. Peptides were prepared at 1, 10, 20, 40, and 100 mM concentrations in water, and injections were performed into the caudal vein. Each peptide was injected at 1 nl for all concentrations except 100 mM, when 2 nl was injected. Control embryos were injected with 1 nl of water. When the peptides were injected, analysis determined embryo sizes, curvatures, and cardiac frequencies. Peptide concentrations were checked in 10 embryos, and these were divided among 96-well plates and analyzed under a microscope or using a magnifying glass. […] To do this, each peptide was prepared in 0.9% NaCl and injected into the tail veins of 3 male Swiss mice at 1.5, 2.0, 2.5, or 5.0 mg.kg^−1, corresponding, respectively, to calculated blood concentrations of approximately 18.5, 24.5, 31, and 62.0 μM. […] Clinical signs were recorded daily, including any reduced motor activity, piloerection, and redness in the ear lobe, cyanosis, protruding eyeballs, slow or labored breathing, loss of response in the rear legs, convulsions, or death. Body weight was recorded at least once before the beginning of the treatment period and again on the day of treatment, with the satellite group checked once during the observation period. For the groups of mice observed for 7 d, food consumption was measured once during the study. […] Hematology investigations were performed before necropsy for all animals except the satellite ones, whose blood biochemistry parameters were determined before euthanasia. […]

[2] = tested on: S. aureus Newman; assay: SEM and TEM after treatment at MIC; assay type: cell-based; conditions: S. aureus treated at the MIC, 2 h 37°C
Experimental: S. aureus Newman and E. coli K12 were cultured in MHB to an OD600 of 0.5 (10^8 CFU/ml). After adding peptides, samples were incubated at 160 rpm for 2 h at 37°C before centrifugation. Bacteria were exposed to pseudopeptide concentrations at their MIC. Untreated controls were prepared under identical conditions. Cell pellets were obtained after cell suspension centrifugation (1,000–3,000g for 5 min). […] S. aureus Newman samples were embedded in 2% agar and dehydrated in a graded series of increasing ethanol concentrations (50, 70, 90, and 100% v/v). For E. coli K12, the samples were placed on a 0.2 μm filter disc, dehydrated in a series of increasing ethanol concentrations, and vacuum dried for 48 h. For SEM observation, specimens were obtained after preparation with a Leica EM CPD300 critical point dryer. A Leica EM ACE200 was used for gold palladium metallization for 30 s. Sample observation was performed with a JEOL JSM-6301F microscope at 7 kV with a 15 mm work distance. TEM was also used to visualize the morphology and intracellular alteration of peptide-treated bacterial cells. For this, bacteria were grown and incubated with AMPs as described above for SEM sample preparation, and controls were prepared in standard medium. Cell pellets were also prepared as described above. […]

SMILES	Cardiac frequency, Mean ([1]; 1 nl of 1 mM injected)	Cardiac frequency, Mean ([1]; 1 nl of 10 mM injected)	Cardiac frequency, Mean ([1]; 1 nl of 20 mM injected)	Cell wall erosion by electron microscopy [2]
CC(C)[C@@H]1NC(=O)[C@H](CCCNC(=N)N)NC(=O)[C@H](CCCNC(=N)N)NC(=O)[C@H](Cc2c[nH]c3ccccc23)NC(=O)[C@H](Cc2ccccc2)NC(=O)[C@H](Cc2ccccc2)NC(=O)[C@H](CCCCN)NC1=O [Pep18] (cyclo(FFWRRVK))	29 heart beat/10 sec	29 heart beat/10 sec	22 heart beat/10 sec	
CC(C)[C@@H]1NC(=O)[C@H](CCCNC(=N)N)NC(=O)[C@H](CCCNC(=N)N)NC(=O)CN(Cc2cccc3ccccc23)NC(=O)[C@H](Cc2ccccc2)NC(=O)CN(Cc2cccc3ccccc23)NC(=O)[C@H](CCCCN)NC1=O [Pep19] (cyclo([azaβ3(1Nal)]F[azaβ3(1Nal)]RRVK))				eroded
